In patent US7608724B2, “Antibacterial and/or antiprotozoal nitromidazole derivative compounds with urease inhibitor activity, process for preparing these compounds and use in pharmaceutical compositions and medicines” (EMS S.A., priority 2003, dated 2009):

Tests used:
[1] = system: Salmonella typhimurium T-100 strain; experiment: Ames Test without metabolic activation (−S9), mutagenic activity; format: cell-based; conditions: for revertant colonies per plate (mean ± standard deviation): −S9, T-100 strain; for mutagenic rate (RM): −S9, positive response ≧2
Procedure: The mutagenic activity of the compounds were evaluated by The Ames Test without metabolic activation (−S9), with Salmonella typhimurium T-100 strain. The test is based in the fact that indicating S. typhimurium strains are sensitive to substances capable of inducing different kinds of mutation. In the presence of mutagenic agents, these strains revert the character of histidine auxotrophic synthesis, and start forming colonies in a medium were this aminoacid is absent. The mutagenic activity of a compound as its concentration function is established by counting the number of colonies per plate.
The final data obtained were analyzed by using Salanal software (Salmonella Assay Analysis) Version 1.0 from Research Triangle Institute, RTP, North Carolina, USA. This software allows to evaluate the dose-answer response by performing an analysis of variance (ANOVA f-test) between the mean revertants number in the different tested concentrations (doses) and the negative control, followed by a linear regression. […] The slope of the linear part of response-dosage curve is also furnished by the program and it corresponds to the number of revertants induced per mg of the sample analyzed.
MR is calculated by the following equation: […]

urease = experiment: Urease inhibiting test (phenol red, formation of ammonium from urea); format: biochemical; conditions: molar concentration of 30 nM
Procedure: Urease inhibition is evaluated by the assay based on RUÍZ-HERRERA, J; GONZALEZ, L. A (1969) and has the objective to verify in the visible spectra, by using phenol red as indicator, the formation of ammonium from urea according to the following reaction: […]

| SMILES | revertant colonies per plate (mean ± standard deviation) ([1]; 2.9 (mM)/plate) | mutagenic rate (RM) ([1]; 2.9 (mM)/plate) | revertant colonies per plate (mean ± standard deviation) ([1]; 14.6 (mM)/plate) | mutagenic rate (RM) ([1]; 14.6 (mM)/plate) | revertant colonies per plate (mean ± standard deviation) ([1]; 29.2 (mM)/plate) | mutagenic rate (RM) ([1]; 29.2 (mM)/plate) | revertant colonies per plate (mean ± standard deviation) ([1]; 58.4 (mM)/plate) | mutagenic rate (RM) ([1]; 58.4 (mM)/plate) | revertant colonies per plate (mean ± standard deviation) ([1]; 116.9 (mM)/plate) | mutagenic rate (RM) ([1]; 116.9 (mM)/plate) | mutagenic activity compared with metronidazole parent drug or its monosuccinate ester (example 1) ([1]; FIG. 1, from table 1) | Urease inhibiting percentage (urease; 1 minute) | Urease inhibiting percentage (urease; 2 minutes) | Urease inhibiting percentage (urease; 3 minutes) |
| --- | --- | --- | --- | --- | --- | --- | --- | --- | --- | --- | --- | --- | --- | --- |
| Cc1ncc([N+](=O)[O-])n1CCOC(=O)CCC(=O)NC(=S)NC(=O)CCC(=O)OCCn1c([N+](=O)[O-])cnc1C [Example 5, Bis[2-(2-methyl-5-nitro-1H-imidazol-1-yl)ethyl]4,4′[(thioxomethylene)diimine]bis(4-oxobutanoate)] | 162 ± 29 colonies per plate | RM = 1.3 | 316 ± 19 colonies per plate | RM = 2.5 | 606 ± 94 colonies per plate | RM = 4.8 | 1095 ± 100 colonies per plate | RM = 8.7 | 1582 ± 79 colonies per plate | RM = 12.5 | very inferior | 74% | 67% | 65% |
| Cc1ncc([N+](=O)[O-])n1CCO [Metronidazole, 2-(2-methyl-5-nitro-1H-imidazol-1-yl)ethanol] | – | – | – | – | – | – | – | – | – | – | – | 6% | 7% | 7% |
| NC(N)=S [Tiourea, thiourea] | – | – | – | – | – | – | – | – | – | – | – | 23% | 16% | 17% |
